Results from PubChem BioAssay (NCI).
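All cell lines were grown in 96-well plates and treated with compound for 48 hours. At the GI50, growth is halved. TGI denotes the concentration required for complete inhibition of growth.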

Experiments:
Test in all cases: NCI tumour cell line growth inhibition, 48 h
HCT-116 colon = test system: HCT-116 colon
SF-539 CNS = test system: SF-539 CNS
SW-620 colon = test system: SW-620 colon
RXF-631 renal = test system: RXF-631 renal
UACC-62 melanoma = test system: UACC-62 melanoma
SN12C renal = test system: SN12C renal
HCC-2998 colon = test system: HCC-2998 colon
EKVX NSCLC = test system: EKVX NSCLC
A498 renal = test system: A498 renal
U251 CNS = test system: U251 CNS
MOLT-4 leukemia = test system: MOLT-4 leukemia
OVCAR-4 ovarian = test system: OVCAR-4 ovarian
DLD-1 colon = test system: DLD-1 colon
COLO 205 colon = test system: COLO 205 colon
M14 melanoma = test system: M14 melanoma
OVCAR-3 ovarian = test system: OVCAR-3 ovarian
SK-MEL-2 melanoma = test system: SK-MEL-2 melanoma
SNB-78 CNS = test system: SNB-78 CNS
786-0 renal = test system: 786-0 renal
ACHN renal = test system: ACHN renal
HT29 colon = test system: HT29 colon
SR leukemia = test system: SR leukemia
KM20L2 colon = test system: KM20L2 colon
RPMI-8226 leukemia = test system: RPMI-8226 leukemia
LXFL 529 NSCLC = test system: LXFL 529 NSCLC
OVCAR-8 ovarian = test system: OVCAR-8 ovarian
LOX IMVI melanoma = test system: LOX IMVI melanoma
DMS 114 small cell lung = test system: DMS 114 small cell lung
K-562 leukemia = test system: K-562 leukemia
SF-295 CNS = test system: SF-295 CNS
HL-60(TB) leukemia = test system: HL-60(TB) leukemia
DMS 273 small cell lung = test system: DMS 273 small cell lung
TK-10 renal = test system: TK-10 renal
SF-268 CNS = test system: SF-268 CNS
UACC-257 melanoma = test system: UACC-257 melanoma
A549 NSCLC = test system: A549 NSCLC
HOP-62 NSCLC = test system: HOP-62 NSCLC
SK-MEL-28 melanoma = test system: SK-MEL-28 melanoma
IGROV1 ovarian = test system: IGROV1 ovarian
HCT-15 colon = test system: HCT-15 colon
CAKI-1 renal = test system: CAKI-1 renal
NCI-H226 lung = test system: NCI-H226 lung
RXF 393 renal = test system: RXF 393 renal
OVCAR-5 ovarian = test system: OVCAR-5 ovarian
NCI-H522 lung = test system: NCI-H522 lung
NCI-H460 lung = test system: NCI-H460 lung
SNB-19 CNS = test system: SNB-19 CNS
SNB-75 CNS = test system: SNB-75 CNS
KM12 colon = test system: KM12 colon
UO-31 renal = test system: UO-31 renal
CCRF-CEM leukemia = test system: CCRF-CEM leukemia
MALME-3M melanoma = test system: MALME-3M melanoma
HOP-92 NSCLC = test system: HOP-92 NSCLC
SK-MEL-5 melanoma = test system: SK-MEL-5 melanoma
M19-MEL melanoma = test system: M19-MEL melanoma
NCI-H23 lung = test system: NCI-H23 lung
HOP-18 NSCLC = test system: HOP-18 NSCLC
SK-OV-3 ovarian = test system: SK-OV-3 ovarian

## COc1ccc2c(CCNC(C)=O)c(C(C)=O)[nH]c2c1
HCT-116 colon
  TGI: > 100000 nM
SF-539 CNS
  TGI: > 100000 nM
SW-620 colon
  TGI: > 100000 nM
RXF-631 renal
  TGI: > 100000 nM
UACC-62 melanoma
  TGI: > 100000 nM
SN12C renal
  TGI: > 100000 nM
HCC-2998 colon
  TGI: > 100000 nM
EKVX NSCLC
  TGI: > 100000 nM
A498 renal
  TGI: > 100000 nM
U251 CNS
  TGI: > 100000 nM
MOLT-4 leukemia
  TGI: > 100000 nM
OVCAR-4 ovarian
  TGI: > 100000 nM
DLD-1 colon
  TGI: > 100000 nM
COLO 205 colon
  TGI: > 100000 nM
M14 melanoma
  TGI: > 100000 nM
OVCAR-3 ovarian
  TGI: > 100000 nM
SK-MEL-2 melanoma
  TGI: > 100000 nM
SNB-78 CNS
  TGI: > 100000 nM
786-0 renal
  TGI: > 100000 nM
ACHN renal
  TGI: > 100000 nM
HT29 colon
  TGI: > 100000 nM
SR leukemia
  TGI: > 100000 nM
KM20L2 colon
  TGI: > 100000 nM
RPMI-8226 leukemia
  TGI: > 100000 nM
LXFL 529 NSCLC
  TGI: > 100000 nM
OVCAR-8 ovarian
  TGI: > 100000 nM
LOX IMVI melanoma
  TGI: > 100000 nM
DMS 114 small cell lung
  TGI: > 100000 nM
K-562 leukemia
  TGI: > 100000 nM
SF-295 CNS
  TGI: > 100000 nM
HL-60(TB) leukemia
  TGI: > 100000 nM
DMS 273 small cell lung
  TGI: > 100000 nM
TK-10 renal
  TGI: > 100000 nM
SF-268 CNS
  TGI: > 100000 nM
UACC-257 melanoma
  TGI: > 100000 nM
A549 NSCLC
  TGI: > 100000 nM
HOP-62 NSCLC
  TGI: > 100000 nM
SK-MEL-28 melanoma
  TGI: > 100000 nM
IGROV1 ovarian
  TGI: > 100000 nM
HCT-15 colon
  TGI: > 100000 nM
CAKI-1 renal
  TGI: > 100000 nM
NCI-H226 lung
  TGI: > 100000 nM
RXF 393 renal
  TGI: > 100000 nM
OVCAR-5 ovarian
  TGI: > 100000 nM
NCI-H522 lung
  TGI: > 100000 nM
NCI-H460 lung
  TGI: > 100000 nM
SNB-19 CNS
  TGI: > 100000 nM
SNB-75 CNS
  TGI: > 100000 nM
KM12 colon
  TGI: > 100000 nM
UO-31 renal
  TGI: > 100000 nM
CCRF-CEM leukemia
  TGI: > 100000 nM

## CCC[CH2][Sn]1([CH2]CCC)[O]C(=O)c2cccc(C)c2[O]1
HCT-116 colon
  GI50: 1250 nM
  TGI: 2500 nM
SF-539 CNS
  GI50: 660 nM
  TGI: 1910 nM
SW-620 colon
  GI50: 200 nM
  TGI: 548 nM
RXF-631 renal
  GI50: 240 nM
  TGI: 535 nM
UACC-62 melanoma
  GI50: 581 nM
  TGI: 1820 nM
SN12C renal
  GI50: 598 nM
  TGI: 1840 nM
HCC-2998 colon
  GI50: 1270 nM
  TGI: 2600 nM
MALME-3M melanoma
  GI50: 441 nM
  TGI: 1550 nM
EKVX NSCLC
  GI50: 1420 nM
  TGI: 2770 nM
A498 renal
  GI50: 317 nM
  TGI: 867 nM
U251 CNS
  GI50: 421 nM
  TGI: 1440 nM
MOLT-4 leukemia
  GI50: 218 nM
  TGI: 699 nM
OVCAR-4 ovarian
  GI50: 1330 nM
  TGI: 2610 nM
DLD-1 colon
  GI50: 722 nM
  TGI: 2050 nM
COLO 205 colon
  GI50: 188 nM
  TGI: 1540 nM
M14 melanoma
  GI50: 577 nM
  TGI: 1880 nM
HOP-92 NSCLC
  GI50: 1280 nM
  TGI: 2580 nM
SK-MEL-5 melanoma
  GI50: 1090 nM
  TGI: 2330 nM
OVCAR-3 ovarian
  GI50: 1110 nM
  TGI: 2320 nM
786-0 renal
  GI50: 1070 nM
  TGI: 2260 nM
ACHN renal
  GI50: 551 nM
  TGI: 1740 nM
HT29 colon
  GI50: 1500 nM
  TGI: 2970 nM
SR leukemia
  GI50: 401 nM
  TGI: 1820 nM
KM20L2 colon
  GI50: 1350 nM
  TGI: 2640 nM
RPMI-8226 leukemia
  GI50: 250 nM
  TGI: 810 nM
LXFL 529 NSCLC
  GI50: 141 nM
  TGI: 440 nM
M19-MEL melanoma
  GI50: 477 nM
  TGI: 1690 nM
OVCAR-8 ovarian
  GI50: 1040 nM
  TGI: 2380 nM
LOX IMVI melanoma
  GI50: 210 nM
  TGI: 448 nM
DMS 114 small cell lung
  GI50: 231 nM
  TGI: 565 nM
K-562 leukemia
  GI50: 259 nM
  TGI: 897 nM
SF-295 CNS
  GI50: 1560 nM
  TGI: 2990 nM
HL-60(TB) leukemia
  GI50: 297 nM
  TGI: 1370 nM
NCI-H23 lung
  GI50: 649 nM
  TGI: 1980 nM
TK-10 renal
  GI50: 356 nM
  TGI: 911 nM
SF-268 CNS
  GI50: 349 nM
  TGI: 1460 nM
UACC-257 melanoma
  GI50: 626 nM
  TGI: 1950 nM
A549 NSCLC
  GI50: 1460 nM
  TGI: 2790 nM
HOP-18 NSCLC
  GI50: 1080 nM
  TGI: 2270 nM
SK-OV-3 ovarian
  GI50: 1880 nM
  TGI: 3400 nM
HOP-62 NSCLC
  GI50: 2340 nM
  TGI: 4160 nM
SK-MEL-28 melanoma
  GI50: 454 nM
  TGI: 1510 nM
IGROV1 ovarian
  GI50: 1350 nM
  TGI: 2720 nM
HCT-15 colon
  GI50: 592 nM
  TGI: 2700 nM
CAKI-1 renal
  GI50: 258 nM
  TGI: 852 nM
RXF 393 renal
  GI50: 290 nM
  TGI: 1020 nM
OVCAR-5 ovarian
  GI50: 1780 nM
  TGI: 3160 nM
NCI-H522 lung
  GI50: 119 nM
  TGI: 250 nM
NCI-H460 lung
  GI50: 2480 nM
  TGI: 5750 nM
SNB-19 CNS
  GI50: 363 nM
  TGI: 1360 nM
SNB-75 CNS
  GI50: 239 nM
  TGI: 766 nM
KM12 colon
  GI50: 1080 nM
  TGI: 2360 nM
UO-31 renal
  GI50: 1030 nM
  TGI: 2220 nM
CCRF-CEM leukemia
  GI50: 260 nM
  TGI: 924 nM
